Results published in ChEMBL document CHEMBL4425154, “New P2X3 receptor antagonists. Part 2: Identification and SAR of quinazolinones” (Bioorg Med Chem Lett, 2016).

Details: human, microsomes, 2.5 µM

**Q.** For `NS(=O)(=O)c1ccccc1-c1ccc2ncnc(NCc3ccc(Cl)nc3)c2c1`, which CLH is on record?
**A.** 0.024 mL/h/kg

**Q.** Which CLH does the source give for `COc1ccc(OC)c(CCN2CCc3ccc(-c4ccccc4S(N)(=O)=O)cc3C2)c1` here?
**A.** 1.38 mL/h/kg

**Q.** For `COc1cc(CCn2cnc3ccc(-c4noc(C)n4)cc3c2=O)cc(OC)c1`, which CLH is on record?
**A.** 1.32 mL/h/kg

**Q.** Which CLH does the source give for `COc1cc(CCn2cnc3ccc(-c4ccccc4S(=O)(=O)N(C)C)cc3c2=O)cc(OC)c1` here?
**A.** 17.6 mL/h/kg

**Q.** Which CLH does the source give for `COc1ccc(OC)c(C(C)n2cnc3ccc(-c4ccccc4S(N)(=O)=O)cc3c2=O)c1` (stereo unspecified) here?
**A.** 2.88 mL/h/kg

**Q.** With `CNc1ccc(-c2ccccc2S(N)(=O)=O)cc1C(=O)NCCc1cc(OC)ccc1OC` as the molecule, how does the CLH read?
**A.** 11.5 mL/h/kg
